The values that follow are results of earlier work, collected in paper PMC11040670, “Mechanistic and Kinetic Insights into Cellular Uptake of Biomimetic Dinitrosyl Iron Complexes and Intracellular Delivery of NO for Activation of Cytoprotective HO-1” (JACS Au, 2024).

Details of series [1]: method as in doi:10.1021/j100627a005. The conditions noted are these: cited from earlier work.
Another series concerns Prx 1. Also noted: method as in earlier work. The conditions noted are these: generated [(NO)2Fe(SGS)(SCys-Prx1)]n–, phosphate buffer (pH 7.4), normoxia; ref SI 4; cited from earlier work.

As for `O=C(O)CCS` [HSCH2CH2COOH], the “pKa for the carboxylic acid group” value in series [1] was 4.3.
Regarding “[(NO)2Fe(SGS)2]n– and [(NO)2Fe(-SGS)2Fe(NO)2]m– [DNDGIC]”, the “k, second-order rate constant” value in the series on Prx 1 was 7.0 ± 0.4 M⁻¹ s⁻¹.
